Test results: US6737383B1, “Herbicidal oxadiazolidines” (priority 1999, dated 2004)

Experiments:
surinam grass = assay: Test B pre/postemergence surinam grass; format: in vivo, Brachiaria decumbens
Procedure, shortened: (§1)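 Response is a visual 0-to-10 score relative to untreated plants, where 0 means no effect and 10 means complete control, taken twelve to sixteen days after application. Treatments went onto soil at planting and onto foliage of 1- to 4-leaf plants, using a surfactant-containing non-phytotoxic solvent.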

rape = assay: Test B pre/postemergence rape; format: in vivo, Brassica napus
Procedure, shortened: as §1

bamyardgrass = assay: Test B flood test barnyardgrass; format: in vivo, Echinochloa crus-galli
Procedure, shortened: (§2)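 Plants were grown to the 2-leaf stage before treatment with test chemical, then held in a greenhouse for twelve to sixteen days. Injury was visually rated against untreated controls on a 0–10 scale, where 0 is no effect and 10 is complete control.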

wild oat = assay: Test B pre/postemergence wild oat; format: in vivo, Avena fatua
Procedure, shortened: as §1

pigweed = assay: Test B pre/postemergence pigweed; format: in vivo, Amaranthus retroflexus
Procedure, shortened: as §1

corn = assay: Test B pre/postemergence corn; format: in vivo, Zea mays
Procedure, shortened: as §1

purple nutsedge = assay: Test B pre/postemergence purple nutsedge; format: in vivo, Cyperus rotundus
Procedure, shortened: as §1

blackgrass = assay: Test B pre/postemergence blackgrass; format: in vivo, Alopecurus myosuroides
Procedure, shortened: as §1

smallflower flatsedge = assay: Test B flood test smallflower flatsedge; format: in vivo, Cyperus difformis
Procedure, shortened: as §2

cocklebur = assay: Test B pre/postemergence cocklebur; format: in vivo, Xanthium strumarium; settings: for Cocklebur plant response rating: Postemergence; for Plant response rating, Cocklebur: Preemergence
Procedure, shortened: as §1

rice = assay: Test B flood test rice; format: in vivo, Oryza sativa
Procedure, shortened: as §2

wheat = assay: Test B pre/postemergence wheat; format: in vivo, Triticum aestivum
Procedure, shortened: as §1

bedstraw = assay: Test B pre/postemergence bedstraw; format: in vivo, Galium aparine
Procedure, shortened: as §1

velvetleaf = assay: Test B pre/postemergence velvetleaf; format: in vivo, Abutilon theophrasti
Procedure, shortened: as §1

duck salad = assay: Test B flood test duck salad; format: in vivo, Heteranthera limosa
Procedure, shortened: as §2

morningglory = assay: Test B pre/postemergence morningglory; format: in vivo, Ipomoea hederacea
Procedure, shortened: as §1

[1] = Postemergence, Rate 62 g/ha, scale 0 to 10, 0 is no effect, 10 is complete control
[2] = Postemergence, Rate 250 g/ha, scale 0 to 10, 0 no effect, 10 complete control
[3] = Preemergence, Rate 62 g/ha, scale 0 to 10, 0 is no effect, 10 is complete control
[4] = Preemergence, Rate 125 g/ha, scale 0 to 10 (0 no effect, 10 complete control)
[5] = Preemergence, Rate 250 g/ha, scale of 0 to 10 where 0 is no effect and 10 is complete control
[6] = Preemergence, Rate 500 g/ha, scale 0 (no effect) to 10 (complete control)
[7] = Rate 125 g/ha, Postemergence, scale 0 to 10, 0 no effect, 10 complete control
[8] = Rate 500 g/ha, Postemergence, 0 to 10 scale (0 no effect, 10 complete control)
[9] = Rate 125 g/ha, Postemergence section (flood test species), scale 0 to 10, 0 no effect, 10 complete control
[10] = Rate 500 g/ha, Postemergence section of Table B, 0 to 10 scale (0 no effect, 10 complete control)
[11] = flood test, listed under Postemergence, Rate 250 g/ha, scale 0 to 10, 0 no effect, 10 complete control
[12] = Rate 62 g/ha, scale 0 to 10, 0 is no effect, 10 is complete control

`Cc1ccc(-n2c(=O)on(C(=O)N(c3ccc(F)cc3F)C(C)C)c2=O)c(C)c1` [Compound 24] was tested, and the “B. signalgrass plant response rating” value (surinam grass; [1]) was 0, the “B. signalgrass plant response rating” value (surinam grass; [2]) was 3 and the “Plant response rating, B. signalgrass” value (surinam grass; [3]) was 0. The “Plant response rating, B. signalgrass” value (surinam grass; [4]) was 4, the “Plant response rating, B. signalgrass” value (surinam grass; [5]) was 4 and the “B. signalgrass plant response rating” value (surinam grass; [6]) was 6. The “B. signalgrass plant response rating” value (surinam grass; [7]) was 3, the “B. signalgrass plant response rating” value (surinam grass; [8]) was 3 and the “Rape plant response rating” value (rape; [1]) was 0. The “Rape plant response rating” value (rape; [2]) was 0, the “Plant response rating, Rape” value (rape; [3]) was 0 and the “Plant response rating, Rape” value (rape; [4]) was 0. For the same molecule, the “Plant response rating, Rape” value (rape; [5]) was 0, the “Rape plant response rating” value (rape; [6]) was 1 and the “Rape plant response rating” value (rape; [7]) was 0. The “Rape plant response rating” value (rape; [8]) was 2, the “Barnyardgrass plant response rating” value (bamyardgrass; [1]) was 0 and the “Barnyardgrass plant response rating” value (bamyardgrass; [9]) was 0. The “Barnyardgrass plant response rating” value (bamyardgrass; [10]) was 8, the “Barnyardgrass plant response rating” value (bamyardgrass; [11]) was 0 and the “Wild oats plant response rating” value (wild oat; [1]) was 0. For the same molecule, the “Wild oats plant response rating” value (wild oat; [2]) was 0, the “Plant response rating, Wild oats” value (wild oat; [4]) was 0 and the “Plant response rating, Wild oats” value (wild oat; [5]) was 0. For the same molecule, the “Wild oats plant response rating” value (wild oat; [6]) was 2, the “Wild oats plant response rating” value (wild oat; [7]) was 0 and the “Redroot pigweed plant response rating” value (pigweed; [1]) was 0. For the same molecule, the “Redroot pigweed plant response rating” value (pigweed; [2]) was 6, the “Plant response rating, Redroot pigweed” value (pigweed; [3]) was 2 and the “Plant response rating, Redroot pigweed” value (pigweed; [4]) was 6. The “Plant response rating, Redroot pigweed” value (pigweed; [5]) was 6, the “Redroot pigweed plant response rating” value (pigweed; [6]) was 9 and the “Redroot pigweed plant response rating” value (pigweed; [7]) was 2. The “Redroot pigweed plant response rating” value (pigweed; [8]) was 6, the “Corn plant response rating” value (corn; [1]) was 0 and the “Corn plant response rating” value (corn; [2]) was 0. For the same molecule, the “Plant response rating, Corn” value (corn; [3]) was 0, the “Plant response rating, Corn” value (corn; [4]) was 0 and the “Plant response rating, Corn” value (corn; [5]) was 0. For the same molecule, the “Corn plant response rating” value (corn; [6]) was 0, the “Corn plant response rating” value (corn; [7]) was 0 and the “Corn plant response rating” value (corn; [8]) was 0. For the same molecule, the “Nutsedge plant response rating” value (purple nutsedge; [1]) was 0, the “Nutsedge plant response rating” value (purple nutsedge; [2]) was 0 and the “Plant response rating, Nutsedge” value (purple nutsedge; [3]) was 0. The “Plant response rating, Nutsedge” value (purple nutsedge; [4]) was 0, the “Plant response rating, Nutsedge” value (purple nutsedge; [5]) was 0 and the “Nutsedge plant response rating” value (purple nutsedge; [6]) was 0. The “Nutsedge plant response rating” value (purple nutsedge; [7]) was 0, the “Nutsedge plant response rating” value (purple nutsedge; [8]) was 0 and the “Blackgrass plant response rating” value (blackgrass; [1]) was 0. The “Blackgrass plant response rating” value (blackgrass; [2]) was 3, the “Plant response rating, Blackgrass” value (blackgrass; [3]) was 0 and the “Plant response rating, Blackgrass” value (blackgrass; [4]) was 1. For the same molecule, the “Plant response rating, Blackgrass” value (blackgrass; [5]) was 4, the “Blackgrass plant response rating” value (blackgrass; [6]) was 4 and the “Blackgrass plant response rating” value (blackgrass; [7]) was 1. The “Blackgrass plant response rating” value (blackgrass; [8]) was 6, the “S. Flatsedge plant response rating” value (smallflower flatsedge; [1]) was 0 and the “S. Flatsedge plant response rating” value (smallflower flatsedge; [9]) was 0. The “S. Flatsedge plant response rating” value (smallflower flatsedge; [11]) was 0, the “Cocklebur plant response rating” value (cocklebur; [12]) was 0 and the “Cocklebur plant response rating” value (cocklebur; Rate 250 g/ha, scale 0 to 10, 0 no effect, 10 complete control) was 1. The “Plant response rating, Cocklebur” value (cocklebur; [12]) was 0, the “Plant response rating, Cocklebur” value (cocklebur; Rate 125 g/ha, scale 0 to 10 (0 no effect, 10 complete control)) was 0 and the “Plant response rating, Cocklebur” value (cocklebur; Rate 250 g/ha, scale of 0 to 10 where 0 is no effect and 10 is complete control) was 0. The “Cocklebur plant response rating” value (cocklebur; Rate 125 g/ha, scale 0 to 10, 0 no effect, 10 complete control) was 0, the “Cocklebur plant response rating” value (cocklebur; Rate 500 g/ha, 0 to 10 scale (0 no effect, 10 complete control)) was 2 and the “Rice plant response rating” value (rice; [1]) was 0. For the same molecule, the “Rice plant response rating” value (rice; [9]) was 0, the “Rice plant response rating” value (rice; [10]) was 0 and the “Rice plant response rating” value (rice; [11]) was 0. For the same molecule, the “Wheat plant response rating” value (wheat; [1]) was 0, the “Wheat plant response rating” value (wheat; [2]) was 0 and the “Plant response rating, Wheat” value (wheat; [3]) was 0. For the same molecule, the “Plant response rating, Wheat” value (wheat; [4]) was 0, the “Plant response rating, Wheat” value (wheat; [5]) was 0 and the “Wheat plant response rating” value (wheat; [6]) was 0. For the same molecule, the “Wheat plant response rating” value (wheat; [7]) was 0, the “Bedstraw plant response rating” value (bedstraw; [1]) was 2 and the “Bedstraw plant response rating” value (bedstraw; [2]) was 8. For the same molecule, the “Plant response rating, Bedstraw” value (bedstraw; [3]) was 0, the “Plant response rating, Bedstraw” value (bedstraw; [4]) was 0 and the “Plant response rating, Bedstraw” value (bedstraw; [5]) was 0. For the same molecule, the “Bedstraw plant response rating” value (bedstraw; [6]) was 0, the “Bedstraw plant response rating” value (bedstraw; [7]) was 3 and the “Bedstraw plant response rating” value (bedstraw; [8]) was 8. The “Velvetleaf plant response rating” value (velvetleaf; [1]) was 0, the “Velvetleaf plant response rating” value (velvetleaf; [2]) was 0 and the “Plant response rating, Velvetleaf” value (velvetleaf; [3]) was 0. For the same molecule, the “Plant response rating, Velvetleaf” value (velvetleaf; [4]) was 0, the “Plant response rating, Velvetleaf” value (velvetleaf; [5]) was 0 and the “Velvetleaf plant response rating” value (velvetleaf; [6]) was 0. For the same molecule, the “Velvetleaf plant response rating” value (velvetleaf; [7]) was 0, the “Ducksalad plant response rating” value (duck salad; [1]) was 0 and the “Ducksalad plant response rating” value (duck salad; [9]) was 0. The “Ducksalad plant response rating” value (duck salad; [10]) was 0, the “Ducksalad plant response rating” value (duck salad; [11]) was 0 and the “Morningglory plant response rating” value (morningglory; [1]) was 9. For the same molecule, the “Morningglory plant response rating” value (morningglory; [2]) was 10, the “Plant response rating, Morningglory” value (morningglory; [3]) was 0 and the “Plant response rating, Morningglory” value (morningglory; [4]) was 0. For the same molecule, the “Plant response rating, Morningglory” value (morningglory; [5]) was 0, the “Morningglory plant response rating” value (morningglory; [6]) was 0 and the “Morningglory plant response rating” value (morningglory; [7]) was 9.
